In US20240398783A1, “Compounds and Pharmaceutical Compositions Comprising Inhibitors of Amyloid Peptide Interactions with Glycosaminoglycans, Methods of Treatment and Use Thereof” (Gismo Therapeutics, Inc., priority 2021, published 2024) one finds IC50 and inhibition data, which are given here for 18 molecules.

Assay [1] concerns the target Alpha-Synuclein Protofibril binding to heparin (HS-GAG) (Homo sapiens, UniProt P37840). Nature of the assay: Inhibition of alpha-synuclein protofibril binding to immobilized heparin-BSA (ELISA). Set-up: species or system porcine. Particulars: for inhibition at 30 µM: read-out: Alpha-Synuclein/Heparin Activity (% inhibition class). The protocol: (§1) Porcine intestinal mucosa heparin conjugated to Bovine Serum Albumin (Heparin-BSA) was prepared as described (Najjam, S. et al. 1997, Cytokine 12, 1013-1022). Heparin is a sulfated HS-GAG and is commonly used as a HS-GAG in biochemical and binding assays (Lindahl, U. and Kjellen, L. (2013) ibid). Heparin-BSA at 0.01 mg/ml in Phosphate Buffered Saline (PBS; pH 7.4) was added to a 96 well polystyrene ELISA plate (NUNC Cat. No. 449824; 100 μl per well) and incubated Over Night (ON) at 4 degrees Celsius. For negative controls, ELISA plates were coated with BSA instead of Heparin-BSA, using the same procedure. Following the incubation, the plate was washed consecutively, by immersion, with de-ionized water and PBS (pH 7.4). The ELISA plate was then blocked with nonfat milk (2%, 200 μl per well) for 2 hours at Room Temperature (RT) with gentle shaking. Following blocking, the plate was washed with de-ionized water then PBS (pH 7.4). GBAPs were dissolved and diluted in PBS (pH 6.5, supplemented with 0.1% BSA) at desired concentrations, added to the ELISA plates containing immobilized Heparin-BSA (100 μl per well) and incubated for 2 hours at RT with gentle shaking. Following incubation, the plate was washed with de-ionized water and three times with PBS (pH 6.5) plus Tween. Bound GBAP was detected by a monoclonal antibody specific for that GBAP, followed by incubation with secondary antibody conjugated to horseradish peroxidase (HRP). Antibody was diluted in PBS (pH 6.5 supplemented with 1% BSA). Following each incubation with antibody, the plate was washed with de-ionized water and three times with PBS (pH 6.5) wash buffer containing 0.1% Tween. The peroxidase substrate chromogen, TMB (Dako Cat. No. S1599) was added (100 μl per well) to the ELISA plate and incubated at room temperature. After 5 minutes ELISA Stop Solution (hydrochloric acid 1N, sulfuric acid 3N) was added (100 μl per well) to stop the peroxidase catalyzed colorimetric reaction. The Optical Density of the samples was measured at 450 nm using an ELISA plate reader (BioTek Synergy H1). Following color development, the % inhibition compared to control (BSA-coated plates) was determined. IC-50s were calculated using GraphPad Prism software.
The assay was performed as described in Example 43, with the following modifications. Following to coating the plates with Heparin-BSA, plates were washed as described. The compounds were dissolved in DMSO at 10 mM final concentration and further diluted prior to assay. DMSO concentration in the screening well was up to […]. Individual compounds were co-incubated with alpha-synuclein on plates containing immobilized heparin. Alpha-synuclein purchased from rPeptide (Cat. No. S1001) was used to prepare protofibrils as described in Ihse et al., 2017. Alpha-synuclein was dissolved in PBS (pH7.4) to a concentration of 140 μM (˜2 mg/ml), and incubated for 7 days at 37° C. with rotary agitation (400 rpm). Resulting fibrils were sonicated for 10 minutes in ultrasonic water bath, quickly frozen and kept in aliquots at −80 degrees Celsius. Protofibrillar alpha-synuclein diluted in PBS (pH 6.5, supplemented with BSA, 0.1%) was added to the ELISA plate (100 μl per well) and incubated for 2 hours at RT with gentle shaking. Following the incubation, the plate was washed with de-ionized water and three times with PBS (pH 6.5) plus Tween. Bound Alpha-synuclein was detected by Anti-Alpha-synuclein Monoclonal Antibody 211 (Santa Cruz Cat. No. sc-12767), followed by secondary anti-IgG antibody conjugated to HRP (R&D System, Cat. No. HAF007). Following to color development with TMB, as described in Example 43, the Optical Density of the samples was measured at 450 nm using an ELISA plate reader. Following color development, the % inhibition compared to control (no compound, DMSO control) for every compound was determined.
An example of inhibition curve is shown in FIG. 1 for Inhibitor Compounds 22 and 24. […]

The target of assay [2] is Tau binding to heparin (HS-GAG) (Homo sapiens, UniProt P10636). Nature of the assay: Inhibition of Tau binding to immobilized heparin-BSA (ELISA). To be noted: for inhibition at 30 µM: read-out: Tau/Heparin Activity (% inhibition class). Set-up: species or system porcine. On the procedure:
as §1
The assay was performed as described in Example 43, with the following modifications. Following to coating the plates with Heparin-BSA, plates were washed as described. The compounds were dissolved in DMSO at 10 mM final concentration and further diluted prior to assay. DMSO concentration in the screening well was up to 2%. Individual compounds were co-incubated with Tau on plates containing immobilized heparin. Tau purchased from rPeptide (Cat. No. T1001) was dissolved in DMSO (Sigma Cat. No. D2650), quickly frozen and kept in aliquots at −80 degrees Celsius. Tau dissolved in PBS (pH 6.5, supplemented with BSA, 0.1%) was added to the ELISA plate (100 μl per well) and incubated for 2 hours at RT with gentle shaking. Following the incubation, the plate was washed with de-ionized water and three times with PBS (pH 6.5) plus Tween. Bound Tau was detected by anti-Tau Monoclonal Antibody D-8 (Santa Cruz Cat. No. sc-166060), followed by secondary anti-IgG antibody conjugated to HRP (R&D System, Cat. No. HAF007). Following to color development with TMB, as described in Example 43, the Optical Density of the samples was measured at 450 nm using an ELISA plate reader. Following color development, the % inhibition compared to control (no compound, DMSO control) for every compound was determined.
An example of inhibition curve is shown in FIG. 3 for Inhibitor Compounds 3 and 6. As described in Example 43, Heparin in the form of Heparin-BSA conjugate is used as a source of HS-GAG. For each compound IC-50 value in Tau—heparin-BSA binding assay is shown in […]. In some cases IC-50 was not measured and […] at 30 μM compound concentration is shown instead. […]
(In an ELISA, binding on a coated surface is turned into a signal by an enzyme label.)

Setting [3] is: alpha-synuclein protofibrils, heparin-BSA, read-out: Alpha-Synuclein/Heparin Activity (IC-50).
[4] abbreviates: Tau, heparin-BSA, read-out: Tau/Heparin Activity (IC-50).
[5] abbreviates: Tau/Heparin Activity (IC-50), Tau, heparin-BSA.
Setting [6] is: Alpha-Synuclein/Heparin Activity (IC-50), alpha-synuclein protofibrils, heparin-BSA.
The mark [7] stands for this setting: 30 μM compound, alpha-synuclein protofibrils, heparin-BSA.
Setting [8] is: 30 μM compound, Tau, heparin-BSA.

Structures are written as SMILES. Counter-ions that a name gives are not always drawn. Like-named read-outs stand apart in the source and are kept apart here. Some results are limits rather than exact numbers.

Tau binding to heparin (HS-GAG), sequence (P10636 with tags, fused parts or gaps): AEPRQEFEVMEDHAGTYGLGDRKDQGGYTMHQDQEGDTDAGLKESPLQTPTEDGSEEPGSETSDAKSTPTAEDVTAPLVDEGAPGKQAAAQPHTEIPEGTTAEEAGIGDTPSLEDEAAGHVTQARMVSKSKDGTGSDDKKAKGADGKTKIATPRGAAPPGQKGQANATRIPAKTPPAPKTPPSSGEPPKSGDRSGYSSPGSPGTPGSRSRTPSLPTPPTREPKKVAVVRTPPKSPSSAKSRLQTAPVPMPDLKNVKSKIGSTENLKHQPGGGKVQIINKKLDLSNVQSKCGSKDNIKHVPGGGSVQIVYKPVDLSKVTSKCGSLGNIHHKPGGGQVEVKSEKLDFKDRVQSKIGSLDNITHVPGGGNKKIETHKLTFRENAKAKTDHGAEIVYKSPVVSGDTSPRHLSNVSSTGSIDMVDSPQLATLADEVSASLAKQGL

Turning to `Cc1cc(-n2ccnc2)ccc1/C=N/Nc1ccnc2cc(Cl)ccc12` [Compound 1, (E)-4-((E)-(4-(1H-imidazol-1-yl)-2-methylbenzylidene)hydrazono)-7-chloro-1,4-dihydroquinoline], the IC50 in assay [1] (setting [3]) is 3.19 µM; in assay [2] (setting [4]), 1.38 µM.
Consider `Cc1ncn(-c2ccc(/C=N/Nc3ccnc4cc(Cl)ccc34)cc2)c1C` [Compound 2, (E)-7-chloro-4-((E)-(4-(4,5-dimethyl-1H-imidazol-1-yl)benzylidene)hydrazono)-1,4-dihydroquinoline], for which the inhibition at 30 µM in assay [1] was less than 30%. In addition, the IC50 in assay [2] (setting [5]) worked out at 4.42 µM.
For `Clc1ccc2c(N/N=C/c3ccc(-n4cccn4)cc3)ccnc2c1` [Compound 3, (E)-4-((E)-(4-(1H-pyrazol-1-yl)benzylidene)hydrazono)-7-chloro-1,4-dihydroquinoline], the IC50 worked out at 1.7 µM in assay [1] (setting [6]) and 1.56 µM in assay [2] (setting [5]).
As for `C[N+](C)(C)Cc1ccc(/C=N\Nc2ccnc3ccc(Cl)cc23)cc1` [Compound 4, (Z)-1-(4-((2-(6-chloroquinolin-4-yl)hydrazineylidene)methyl)phenyl)—N,N,N-trimethylmethanaminium iodide], in assay [1] (setting [7]), the inhibition at 30 µM was more than 30%. The IC50 in assay [2] (setting [5]) came to 29.2 µM.
`Fc1ccc2c(N/N=C/c3ccc(-n4ccnc4)cc3)ccnc2c1` [Compound 5, (E)-4-(2-(4-(1H-imidazol-1-yl)benzylidene)hydrazinyl)-7-fluoroquinoline]: the inhibition at 30 µM in assay [1] is less than 30%. Further, the IC50 in assay [2] (setting [5]) was found to be 31.4 µM.
In the case of `Fc1ccc2c(N/N=C/c3ccc(CN4CCOCC4)cc3)ccnc2c1` [Compound 6, (E)-4-(4-((2-(7-fluoroquinolin-4-yl)hydrazono)methyl)benzyl)morpholine], the inhibition at 30 µM in assay [1] (setting [7]) is more than 30%. In addition, the IC50 in assay [2] (setting [5]) is 2.27 µM.
In the case of `CN1CCN(Cc2ccc(/C=N/Nc3ccnc4cc(Cl)ccc34)cc2)CC1` [Compound 7, (E)-7-chloro-4-(2-(4-((4-methylpiperazin-1-yl)methyl)benzylidene)hydrazinyl)quinolone], the figures for the IC50 in assay [1] (setting [6]) and in assay [2] (setting [5]) were 1.41 µM and 15.5 µM, respectively.
On to `C(=N\Nc1ccc2c3c(cccc13)CC2)/c1ccc(-n2ccnc2)cc1` [Compound 8, (E)-1-(4-((2-(1,2-dihydroacenaphthylen-5-yl)hydrazineylidene)methyl)phenyl)-1H-imidazole], for which the inhibition at 30 µM in assay [1] and in assay [2] was less than 30% throughout.
As for `C[n+]1ccc(/C=N\Nc2ccnc3ccccc23)cc1` [Compound 9, (Z)-1-methyl-4-((2-(quinolin-4-yl)hydrazono)methyl)pyridin-1-ium iodide], the inhibition at 30 µM in assay [1] (setting [7]) and in assay [2] (setting [8]) was less than 30% throughout.
With `O=S1(=O)CCN(Cc2ccc(/C=N/Nc3ccnc4cc(F)ccc34)cc2)CC1` [Compound 10, (E)-4-(4-((2-(7-fluoroquinolin-4-yl)hydrazono)methyl)benzyl)thiomorpholine 1,1-dioxide], the inhibition at 30 µM in assay [1] (setting [7]) and in assay [2] (setting [8]) was less than 30% in each case.
Turning to `COc1cc2nccc(NN=Cc3ccc(-n4ccnc4)c(C)c3)c2cc1OC` [Compound 11, 4-(2-(4-(1H-imidazol-1-yl)-3-methylbenzylidene)hydrazineyl)-6,7-dimethoxyquinoline hydrochloride], the inhibition at 30 µM in assay [1] is less than 30%. The IC50 in assay [2] (setting [5]) was found to be 3.3 µM.
The like results for `COc1ccc2c(NN=Cc3ccc(-n4ccnc4)c(C)c3)ccnc2c1` [Compound 12, 4-(2-(4-(1H-imidazol-1-yl)-3-methylbenzylidene)hydrazineyl)-7-methoxyquinoline] were, in that order, less than 30% and 13.1 µM.
With `COc1cc2nccc(N/N=C/c3ccc(-n4ccnc4)c(OC)c3)c2cc1OC` [Compound 13, (E)-4-(2-(4-(1H-imidazol-1-yl)-3-methoxybenzylidene)hydrazineyl)-6,7-dimethoxyquinoline phosphate], in assay [1] (setting [6]), the IC50 came out at 35.2 µM. The inhibition at 30 µM in assay [2] was less than 30%.
Consider `Clc1ccc2c(N/N=C/c3ccc(-n4ccnc4)nc3)ccnc2c1` [Compound 14, (E)-4-(2-((6-(1H-imidazol-1-yl)pyridin-3-yl)methylene)hydrazineyl)-7-chloroquinoline hydrochloride], for which the IC50 in assay [1] (setting [6]) is 2.02 µM; in assay [2] (setting [5]) it was 20.3 µM.
For `Cc1ncn(-c2ccc(/C=N\Nc3ncnc4cc(Cl)ccc34)cn2)c1C` [Compound 15, 7-chloro-4-(2-((6-(4,5-dimethyl-1H-imidazol-1-yl)pyridin-3-yl)methylene)hydrazineyl)quinazoline hydrochloride], the IC50 in assay [1] (setting [6]) is 5.22 µM; in assay [2] (setting [5]) it was 67.9 µM.
For the molecule `C/C(=N\Nc1ncnc2cc(Cl)ccc12)c1ccc(-n2cnc(C)c2C)nc1` [Compound 16, 7-chloro-4-(2-(1-(6-(4,5-dimethyl-1H-imidazol-1-yl)pyridin-3-yl)ethylidene)hydrazineyl)quinazoline phosphate], the IC50 in assay [1] (setting [6]) came out at 3.21 µM; in assay [2] (setting [5]) it was 3.92 µM.
With `C/C(=N\Nc1ncnc2cc(Cl)ccc12)c1ccc(-n2cc[n+](C)c2)nc1` [Compound 17, (E)-1-(5-(1-(2-(7-chloroquinazolin-4-yl)hydrazineylidene)ethyl)pyridin-2-yl)-3-methyl-1H-imidazol-3-ium iodide phosphoric acid salt], the IC50 turned out to be 13.5 µM in assay [1] (setting [6]) and 12.2 µM in assay [2] (setting [5]).
For the molecule `C/C(=N\Nc1ncnc2cc(Cl)ccc12)c1ccc(-n2cc(C)nc2C)nc1` [Compound 18, (E)-7-chloro-4-(2-(1-(6-(2,4-dimethyl-1H-imidazol-1-yl)pyridin-3-yl)ethylidene)hydrazineyl)quinazoline phosphoric acid salt], the IC50 in assay [1] (setting [3]) was determined as 1.71 µM; in assay [2] (setting [4]), 13.6 µM.
